Test [1] concerns HSV-1. Description: HSV-1 Antiviral Assay (Vero cells, cell viability). Format: cell-based. The following applies: Human alphaherpesvirus 1, 96 h; Vero cells, 80 TCID50 HSV-1, 4 days, cell viability; read-out: HSV-1 EC50. Summed up:
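Vero cells (2.5×10^3/well) received 8-point 3-fold compound dilutions in 2% FBS medium (0.5% DMSO), then 80 TCID50 HSV-1. After 4 days at 37 °C, cell viability was measured by CellTiter-Glo luminescence.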

For test [2], the system named is HSV-2 G strain. The test can be described thus: HSV-2 Antiviral Assay (Vero cells, cell viability). In kind it is cell-based. Particulars: Human alphaherpesvirus 2, Vero, 120 h, Vero cells, 160 TCID50 HSV-2 G strain, 5 days, cell viability. Summed up: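 Vero cells (1.0×10^4/well, attached overnight) given 8-point 3-fold compound dilutions (0.5% DMSO) then infected with 160 TCID50 HSV-2 G strain in 2% FBS medium for 5 days at 37 °C. Protection read as cell viability by WST-8 absorbance at 460 and 620 nm after 3 h.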

In general, EC50 refers to the midpoint of the concentration-response curve. On to `Cc1nc(N2CCCN(Cc3cccc(-c4cc(F)ccc4F)c3)C2=O)sc1S(N)(=O)=O` [Compound 172, 2-(3-((2′,5′-Difluoro-[1,1′-biphenyl]-3-yl)methyl)-2-oxotetrahydropyrimidin-1(2H)-yl)-4-methylthiazole-5-sulfonamide], for which the EC50 in test [1] and in test [2] was less than 100 nM each time.

As to `Cc1nc(N2CCCN(c3ccc(-c4cc(F)ccc4C(F)F)cc3)C2=O)sc1S(N)(=O)=O` [Compound 194], the EC50 in test [1] and in test [2] was less than 100 nM each time.

On to `Cc1nc(N2CCCN(c3ccc(-c4cc(F)ccc4F)cc3)C2=O)sc1S(=O)(=O)NCCCO` [Compound 417], for which the EC50 in test [1] and in test [2] was less than 100 nM each time.

As for `Cc1nc(N2CCCN(c3ccc(-c4cc(F)cc(-c5cncs5)c4F)cc3)C2=O)sc1S(N)(=O)=O` [Compound 211], the EC50 in test [1] and in test [2] was less than 100 nM each time.

For the molecule `Cc1nc(N2CCCN(c3ccc(-c4cc(F)ccc4F)cc3)C2=O)sc1[S@@](C)(=N)=O` (single isomer, unassigned) [Compound 140], the 50% effective concentration (EC50) in test [1] and in test [2] was 100 to 1000 nM in each case.

Take `Cc1nc(N2CCCN(c3ccc(-c4nc5c(F)cccc5s4)cc3)C2=O)sc1S(N)(=O)=O` [Compound 90]: the concentration for a half-maximal effect (EC50) in test [1] and in test [2] was 100 to 1000 nM in each case.

Take `Cc1nc(N2CCCN(c3ccc(-c4cc(F)cc(F)n4)cc3)C2=O)sc1S(N)(=O)=O` [Compound 235, 2-(3-(4-(4,6-difluoropyridin-2-yl)phenyl)-2-oxotetrahydropyrimidin-1(2H)-yl)-4-methylthiazole-5-sulfonamide]: the EC50 in test [1] and in test [2] was less than 100 nM in each case.

For `Cc1nc(N2CCCN(c3ccc(-c4cc(F)cc5ncsc45)cc3)C2=O)sc1S(N)(=O)=O` [Compound 255], the EC50 in test [1] and in test [2] was less than 100 nM throughout.

Consider `Cc1nc(N2CCCN(c3ccc(-c4cc(F)ccc4F)cc3)C2=O)sc1S(N)(=O)=O` [Compound 5], for which the EC50 in test [1] and in test [2] was less than 100 nM in each case.

As for `Cc1nc(N2CCCN(c3ccc(-c4cc(Br)ccc4F)cc3)C2=O)sc1S(N)(=O)=O` [Compound 25], the EC50 in test [1] and in test [2] was less than 100 nM in each case.

`Cc1nc(N2CCCN(c3ccc(-c4cc(F)cc(-c5cnn(C)c5)c4F)cc3)C2=O)sc1S(N)(=O)=O` [Compound 210]: the EC50 in test [1] and in test [2] was less than 100 nM throughout.

With `CNS(=O)(=O)c1sc(N2CCCN(c3ccc(-c4nccs4)cc3)C2=O)nc1C` [Compound 126], the EC50 in test [1] and in test [2] was less than 100 nM in each case.

With `NS(=O)(=O)c1sc(N2CCCN(c3ccc(-c4cc(F)ccc4F)cc3)C2=O)nc1CF` [Compound 441, 2-(3-(2′,5′-difluoro-[1,1′-biphenyl]-4-yl)-2-oxotetrahydropyrimidin-1(2H)-yl)-4-(fluoromethyl)thiazole-5-sulfonamide], the EC50 in test [1] and in test [2] was less than 100 nM each time.

As to `Cc1nc(N2CCCN(c3ccc(-c4ccccc4F)cc3F)C2=O)sc1S(N)(=O)=O` [Compound 96], the EC50 in test [1] and in test [2] was less than 100 nM in each case.

`Cc1nc(N2CCCN(c3ccc(-c4nccs4)cc3)C2=O)sc1S(N)(=O)=O` [Compound 42, 4-Methyl-2-(2-oxo-3-(4-(thiazol-2-yl)phenyl)tetrahydropyrimidin-1(2H)-yl) thiazole-5-sulfonamide]: the EC50 in test [1] and in test [2] was less than 100 nM in each case.

As for `Cc1nc(N2CCCN(c3ccc(-c4cccnc4)cc3)C2=O)sc1S(N)(=O)=O` [Compound 2], the EC50 in test [1] and in test [2] was 100 to 1000 nM each time.

In the case of `Cc1nc(N2CCCN(c3ccc(-c4ccc(C#CC(C)(C)O)cc4)cc3)C2=O)sc1S(N)(=O)=O` [Compound 28], the EC50 in test [1] and in test [2] was 1000 to 5000 nM in each case.

As for `Cc1nc(N2CCCN(c3ccc(-c4nc5ncccc5s4)cc3)C2=O)sc1S(N)(=O)=O` [Compound 89], the EC50 in test [1] and in test [2] was 1000 to 5000 nM throughout.

As to `CNS(=O)(=O)c1sc(N2CCCN(c3ccc(-c4ccccc4F)cc3F)C2=O)nc1C` [Compound 130], the EC50 in test [1] and in test [2] was less than 100 nM in each case.

Take `Cc1nc(N2CC3(CC3)CN(c3ccc(-c4cc(F)ccc4F)cc3)C2=O)sc1S(N)(=O)=O` [Compound 110, 2-(7-(2′,5′-Difluoro-[1,1′-biphenyl]-4-yl)-6-oxo-5,7-diazaspiro [2.5]octan-5-yl)-4-methylthiazole-5-sulfonamide]: the EC50 in test [1] and in test [2] was less than 100 nM each time.

For the molecule `Cc1nc(N2CCCN(c3ccc(-c4cc(Cl)cc5ncsc45)cc3)C2=O)sc1S(N)(=O)=O` [Compound 277], the EC50 in test [1] and in test [2] was less than 100 nM each time.

Consider `Cc1nc(N2CCCCN(c3ccc(-c4cc(F)ccc4F)cc3)C2=O)sc1S(N)(=O)=O` [Compound 101, 2-(3-(2′,5′-Difluoro-[1,1′-biphenyl]-4-yl)-2-oxo-1,3-diazepan-1-yl)-4-methylthiazole-5-sulfonamide], for which the EC50 in test [1] and in test [2] was less than 100 nM in each case.

On to `CNS(=O)(=O)c1sc(N2CCCN(Cc3cccc(-c4cc(F)ccc4F)c3)C2=O)nc1C` [Compound 181], for which the EC50 in test [1] is less than 100 nM; in test [2], 100 to 1000 nM.

`Cc1nc(N2CCCN([C@@H](C)c3cccc(-c4cc(F)ccc4F)c3)C2=O)sc1S(N)(=O)=O` (single isomer, unassigned) [Compound 175]: the EC50 in test [1] and in test [2] was 1000 to 5000 nM throughout.

For the molecule `Cc1nc(N2CCCN(c3ccc(-c4cccc5c4cnn5C)cc3)C2=O)sc1S(N)(=O)=O` [Compound 55], the EC50 in test [1] and in test [2] was less than 100 nM each time.

For `Cc1nc(N2CCCN(c3ccc(-c4ncccc4F)cc3)C2=O)sc1S(N)(=O)=O` [Compound 35], the EC50 in test [1] and in test [2] was less than 100 nM throughout.

In the case of `COc1c(F)cc(F)cc1-c1ccc(N2CCCN(c3nc(C)c(S(N)(=O)=O)s3)C2=O)cc1` [Compound 216], the EC50 in test [1] and in test [2] was less than 100 nM each time.

In the case of `CNS(=O)(=O)c1sc(N2CCCN(c3ccc(-c4cc(F)ccc4F)cc3)C2=O)nc1C` [Compound 116, 2-(3-(2′,5′-Difluoro-[1,1′-biphenyl]-4-yl)-2-oxotetrahydropyrimidin-1(2H)-yl)-N,4-dimethylthiazole-5-sulfonamide], the EC50 in test [1] and in test [2] was less than 100 nM throughout.

As for `Cc1nc2cccc(-c3ccc(N4CCCN(c5nc(C)c(S(N)(=O)=O)s5)C4=O)cc3)c2s1` [Compound 68], the concentration giving a half-maximal response (EC50) in test [1] and in test [2] was less than 100 nM in each case.

With `Cc1nc(N2CCCN(C(C)c3cccc(-c4cc(F)ccc4F)c3)C2=O)sc1S(N)(=O)=O` (centres unmarked) [Compound 174, 2-(3-(1-(2′,5′-Difluoro-[1,1′-biphenyl]-3-yl)ethyl)-2-oxotetrahydropyrimidin-1(2H)-yl)-4-methylthiazole-5-sulfonamide], the EC50 in test [1] and in test [2] was 1000 to 5000 nM in each case.

With `Cc1nc(N2CCCN(c3ccc(-c4nccs4)cc3)C2=O)sc1S(=O)(=O)NC1CC1` [Compound 127], the EC50 in test [1] and in test [2] was less than 100 nM throughout.

`Cc1nc(N2CCCN(c3cccc(-c4ccccn4)c3)C2=O)sc1S(N)(=O)=O` [Compound 4]: the EC50 in test [1] and in test [2] was 100 to 1000 nM each time.

In the case of `Cc1nc(N2CCCN(c3cc(F)c(-c4ccccc4)cc3F)C2=O)sc1S(N)(=O)=O` [Compound 99, 2-(3-(2,5-Difluoro-[1,1′-biphenyl]-4-yl)-2-oxotetrahydropyrimidin-1(2H)-yl)-4-methylthiazole-5-sulfonamide], the EC50 in test [1] and in test [2] was less than 100 nM in each case.

As to `Cc1nc(N2CC(F)CN(c3ccc(-c4cc(F)ccc4F)cc3)C2=O)sc1S(N)(=O)=O` (centres unmarked) [Compound 363], the EC50 in test [1] and in test [2] was less than 100 nM in each case.

`Cc1nc(N2C[C@@H](C)CN(c3ccc(-c4ccccc4Cl)cc3)C2=O)sc1S(N)(=O)=O` (single isomer, unassigned) [Compound 323]: the EC50 in test [1] and in test [2] was less than 100 nM in each case.

Turning to `Cc1nc(N2CCCN(c3ccc(-c4cccc5[nH]c(=O)sc45)cc3)C2=O)sc1S(N)(=O)=O` [Compound 78], the EC50 in test [1] and in test [2] was 100 to 1000 nM throughout.

As for `Cc1nc(N2CCCN(c3ccc(-c4cccc5ncsc45)cc3)C2=O)sc1S(N)(=O)=O` [Compound 67, 2-(3-(4-(Benzo[d]thiazol-7-yl)phenyl)-2-oxotetrahydropyrimidin-1(2H)-yl)-4-methylthiazole-5-sulfonamide], the EC50 in test [1] and in test [2] was less than 100 nM throughout.

For `Cc1nc(N2CCCN(c3ccc(-c4ccccc4F)c(F)c3)C2=O)sc1S(N)(=O)=O` [Compound 95], the EC50 in test [1] and in test [2] was 100 to 1000 nM each time.

For the molecule `Cc1nc(N2CCCN(c3ccc(-c4cc(F)ccc4Cl)cc3)C2=O)sc1S(N)(=O)=O` [Compound 193], the EC50 in test [1] and in test [2] was less than 100 nM throughout.

For the molecule `Cc1nc(N2CCCN(c3cc(F)c(-c4ccccn4)cc3F)C2=O)sc1S(N)(=O)=O` [Compound 98], the concentration giving a half-maximal response (EC50) in test [1] and in test [2] was less than 100 nM each time.

For the molecule `Cc1nc(N2CCCCN(c3ccc(-c4ccccc4F)cc3)C2=O)sc1S(N)(=O)=O` [Compound 102], the EC50 in test [1] and in test [2] was less than 100 nM throughout.

Take `CNS(=O)(=O)c1sc(N2CCCN(c3ccc(-c4cccc(N)n4)cc3)C2=O)nc1C` [Compound 123]: the 50% effective concentration (EC50) in test [1] and in test [2] was less than 100 nM throughout.

Take `COc1ccc(F)c(-c2ccc(N3CCCN(c4nc(C)c(S(N)(=O)=O)s4)C3=O)cc2)c1` [Compound 26]: the EC50 in test [1] and in test [2] was less than 100 nM throughout.

(Values after patent publication US20260103471A1, “CYCLIC UREA THIAZOLYL COMPOUNDS FOR TREATMENT OF HSV” (Assembly Biosciences, Inc., priority 2022, published 2026).)
